Experiments:
[1] = cited from earlier work
HUVEC cells = test: MTS cytotoxicity assay (CellTiter 96); assay type: cell-based; conditions: ~24 hours incubation
Description: (§1) High throughput cell viability assays were completed using standard procedures. Cytotoxicity of polymers was determined by the CellTiter 96® Aqueous Cell Proliferation Assay (Promega). A549 and HUVEC cells were cultured and incubated with polymers for ˜24 hours. Next, the media was removed and replaced with a mixture of 100 μL fresh culture media and 20 μL MTS reagent solution and cells were incubated for 3 hours at 37° C. in a 5% CO2 incubator. The absorbance of each well was then measured at 490 nm using a microtiter plate reader (SpectraMax, M25, Molecular Devices Corp.) to determine relative cell viability.

A549 cells = test: MTS cytotoxicity assay (CellTiter 96); assay type: cell-based; conditions: ~24 hours incubation
Description: as §1

O=C(N[C@H]1COC(=O)[C@@H](NC(=O)c2cccc(O)c2O)COC(=O)[C@@H](NC(=O)c2cccc(O)c2O)COC1=O)c1cccc(O)c1O [Enterobactin]
relative iron binding constant ([1]; Fe(III)): 35.5
Log K ([1]; iron): 52

CC(=O)N(O)CCCCCNC(=O)CCC(=O)N(O)CCCCCNC(=O)CCC(=O)N(O)CCCCCN [DFO, desferoxamine]
toxic effect on HUVEC cells (HUVEC cells): considerably toxic even at concentration as low as 10 μg/mL
toxic effect on A549 cells (A549 cells): no toxic effect

Reference: patent US10039836B2, “Polyamine-dihydroxybenzoic acid conjugate hydrogels as iron chelators” (THE UNIVERSITY OF KANSAS, priority 2010, dated 2018)
